# Laboratory results from patent publication US20250314668A1, “DNAZYMES FOR SENSING AND IMAGING TARGET MOLECULES” (BOARD OF REGENTS, THE UNIVERSITY OF TEXAS SYSTEM, priority 2024, published 2025).
# Numbering of substitutions follows the chain as printed. “Also recorded” adds a separate entry of the source. d = 2'-deoxy (DNA); m = 2'-O-methyl; r = 2'-OH (RNA)
# B1: Fe^2+ H5 DNAzyme A39T (nucleic acid)
# chain: TGGATATCTCCTAGCCAGACTGTTATGTGTGATACGGCTAACTTCGTGATGCCTCTACGGGTCCG
# modifications: DNA, backbone not given here
# B2: Fe^2+ H5 DNAzyme G51C (nucleic acid)
# chain: B1 chain with T39A, G51C
# modifications: DNA, backbone not given here
# B3: Fe^2+ H5 DNAzyme A39G (nucleic acid)
# chain: B1 chain with T39G
# modifications: DNA, backbone not given here
# B4: Fe^2+ H5 DNAzyme T54C (nucleic acid)
# chain: B1 chain with T39A, T54C
# modifications: DNA, backbone not given here
# B5: Fe^2+ H5 DNAzyme Combo 31 (nucleic acid)
# chain: B1 chain with T39G, A40C, G51C, C52G
# modifications: DNA, backbone not given here
# B6: Fe^2+ H5 DNAzyme Combo 41 (nucleic acid)
# chain: B1 chain with T39G, A40C, G51C, C52G, T54C
# modifications: DNA, backbone not given here
# B7: Fe^2+ H5 DNAzyme C52G (nucleic acid)
# chain: B1 chain with T39A, C52G
# modifications: DNA, backbone not given here
# B8: Fe^2+ H5 DNAzyme Combo 29 (nucleic acid)
# chain: B1 chain with T39G, G51C, C52G
# modifications: DNA, backbone not given here
# B9: Fe^2+ H5 DNAzyme A40C (nucleic acid)
# chain: B1 chain with T39A, A40C
# modifications: DNA, backbone not given here
# B10: Fe^2+ H5 DNAzyme Combo 30 (nucleic acid)
# chain: B1 chain with T39G, A40C, T54C
# modifications: DNA, backbone not given here
# Key:
# HT1080 cells = assay: Fe^2+ and Fe^3+ imaging in cells treated with SAS and Fer-1, with or without NCOA4 knock down; format: cell-based
# Experimental: Ferroptosis is a Fe-related cell death. To understand how Fe^2+ and Fe^3+ have a role in this process, the cells were incubated with Sulfasalazine (SAS), which inhibits System Xc- and induces ferroptosis. Elevated Fe^2+ and Fe^3+ levels, as well as an elevated Fe^3+/Fe^2+ ratio over time, were observed when compared with nontreated controls. This elevation is inhibited by Ferrostatin-1 (Fer-1), an antioxidant that inhibits lipid peroxidation by scavenging alkoxyl radicals. […] This observation indicates the association between Fe levels and lipid peroxidation.
# To understand how labile iron and iron redox changes are associated with cell ferroptosis, the study focused on the regulatory effects of NCOA4 on Fe^2+ and Fe^3+. NCOA4 is a key gene that regulates iron homeostasis through ferritinophagy, degrading iron storage protein, and releasing iron into the cell. To understand how NCOA4 influences Fe^2+ and Fe^3+, the study used the CRISPR/Cas technique to knock down NCOA4 expressions. As shown with the western blot, single guide RNAs knocked down the expression of NCOA4 in the HT1080 cells. In these cells, reduced Fe^2+ and Fe^3+ signals were detected as indicated by the DNAzyme sensors. In the meanwhile, the redox ratio of Fe^3+/Fe^2+ elevated, indicating the NCOA4 may not only regulate the labile iron amount but also the Fe redox states.
# On the contrary, when inhibiting ferroptosis with Fer-1, reduced Fe^2+ and Fe^3+ levels were observed.
# [1] = PAGE gel activity assays of Fe^2+ H5 DNAzyme (cleavage site, truncation, pH, mutation combinations, selectivity); format: biochemical; settings: for cleavage by the original Fe^2+ H5 DNAzyme: presence of Fe^2+, anaerobic conditions; for relative activity of combined point mutations versus original: original FAM-labeled substrate, 100 μM FeCl2, 2 hours, room temperature
# From the text: RNA Cleavage Dependence of Fe^2+ H5 and Fe^3+ B12 DNAzymes: To investigate the Fe^2+ H5 and Fe^3+ B12 DNAzymes, various cleavage site modifications were incorporated into the substrate strands. The original Fe^2+ H5 DNAzyme was combined with Fe^2+ H5 substrate strands containing either a 2′-hydroxyl (2′OH), 2′-hydrogen (2′H), or 2′O-methyl (2′OMe) at the cleavage site. The original Fe^2+ H5 DNAzyme cleaves the Fe^2+ H5 substrate strand containing 2′OH at the cleavage site in the presence of Fe^2+ under anaerobic conditions. […] Similarly, the original Fe^3+ B12 DNAzyme was combined with Fe^3+ B12 substrate strands containing either 2′OH, 2′H, or 2′OMe at the cleavage site. The original Fe^3+ B12 DNAzyme cleaves the Fe^3+ B12 substrate strand containing 2′OH at the cleavage site in the presence of Fe^3+. […] These findings highlight the critical role of the 2′OH group at the cleavage site in enabling DNAzyme activity for both Fe^2+ H5 and Fe^3+ B12 systems, as substitutions with 2′H or 2′OMe impede cleavage.
# Truncations of Fe^2+ H5 and Fe^3+ B12 DNAzymes' Binding Arms: To further investigate the Fe^2+ H5 and Fe^3+ B12 DNAzymes, the DNAzymes were truncated at the 5′ and 3′ ends and tested using the FAM-labeled original substrate strand through activity assays assessed by PAGE gel. The activity of the Fe^2+ H5 DNAzyme with the original substrate strand remains relatively unchanged when 1 or 2 nucleotides are truncated from either the 3′ or 5′ end. […] The activity of the Fe^3+ B12 DNAzyme with the original substrate strand is maintained when 1 or 2 nucleotides are truncated from the […]. A notable reduction in relative intensity occurs when 3, 4, or 5 nucleotides are truncated from the 5′ end. Additionally, truncation of 1, 2, or 3 nucleotides from the 3′ end also results in a decrease in relative intensity.
# pH Dependency of Fe^2+ H5 and Fe^3+ B12 DNAzymes: To further investigate the impact of reaction conditions on catalytic activity, the study evaluated the influence of pH system. For the Fe^2+ H5 DNAzyme, the study assessed cleavage efficiency across a pH range of 6.0 to 7.5 in MOPS, MES, Bis-Tris, or Tris under anaerobic conditions with 100 μM FeCl2.
# Combination of Fe^2+ H5 DNAzyme strand Improvements: Given the enhanced activity observed with several point mutations in the Fe^2+ H5 DNAzyme strand, the study investigated whether combinations of these point mutations would further improve the DNAzyme's activity. The study designed 41 combinations of the 6-point mutations located at positions 39 (A39T and A39G), 40 (A40C), 51 (G51C), 52 (C52G), and 54 (T54C), along with the original Fe^2+ H5. Each sequence was tested with the original FAM-labeled Fe^2+ substrate strand in the presence of 100 μM FeCl2 for 2 hours at room temperature. […] Certain combinations of mutations enhance activity, while others diminish it, indicating interactions that are not merely additive. The specific positions of the mutations play a critical role in determining the overall activity, with some combinations inducing beneficial conformational changes and others disrupting key structural elements. These findings highlight the importance of understanding the contextual interplay of mutations for optimizing DNAzyme performance. The identified combinations that increase activity offer valuable insights for the future engineering of more efficient DNAzyme variants.
# Combining Enhanced Fe^2+ H5 and Fe^3+ B12 DNAzymes Single Point Mutations: To assess the potential additive effects of combining enhanced Fe^2+ H5 DNAzyme strands with substrate strands, the study evaluated the relative intensities of point mutations within these strands. Reactions were conducted in a buffer solution containing 25 mM Bis-Tris, 200 mM NaCl at pH 6.5, with 250 nM each of the mutated H5 DNAzyme strand and the FAM-labeled mutated H5 substrate strand, and 100 μM FeCl2. […]
# [2] = Point mutation gel cleavage assay of Fe^2+ H5 DNAzyme and substrate (heat map); format: biochemical; settings: 100 μM FeCl2, pH 6.5, anaerobic, overnight; for activity of mutated substrate strand normalized to original Fe^2+ H5 Substrate: original DNAzyme strand; for activity of mutated DNAzyme strand normalized to original Fe^2+ H5 DNAzyme: FAM-labeled original substrate
# Experimental: FIG. 7 depicts a heat map illustrating the impact of point mutations within the catalytic core of the Fe^2+ H5 DNAzyme, against the unaltered Fe^2+ H5 substrate strand for comparative analysis with 25 mM Bis Tris, 200 mM NaCl at pH 6.5 with 100 μM FeCl2 in anaerobic conditions. The reaction occurred overnight at room temperature and analyzed by polyacrylamide gel electrophoresis.
# FIG. 8 depicts a heat map illustrating the impact of point mutations within the catalytic core of the Fe^2+ H5 Substrate strand, against the unaltered Fe^2+ H5 DNAzyme strand for comparative analysis with 25 mM Bis Tris, 200 mM NaCl at pH 6.5 with 100 μM FeCl2 in anaerobic conditions. The reaction occurred overnight at room temperature and analyzed by polyacrylamide gel electrophoresis.
# Point mutations were intentionally introduced into the Fe^2+ H5 DNAzyme, and subsequently assessed in comparison to the unaltered Fe^2+ H5 Substrate under controlled reaction conditions. These conditions include a solution containing 25 mM Bis Tris, 200 mM NaCl at pH 6.5, with concentrations set at 250 nM for both the mutated H5 DNAzyme Strand and the FAM-labeled Original H5 Substrate Strand, alongside 100 μM FeCl2. The reaction proceeded overnight at room temperature under anaerobic conditions, followed by analysis via electrophoresis on a 15% denaturing gel.
# Point mutations were intentionally introduced into the Fe^2+ H5 Substrate Strand, and subsequently assessed in comparison to the unaltered Fe^2+ H5 DNAzyme under controlled reaction conditions. These conditions include a solution containing 25 mM Bis Tris, 200 mM NaCl at pH 6.5, with concentrations set at 250 nM for both the Original H5 DNAzyme Strand and the FAM-labeled mutated H5 Substrate Strand, alongside 100 μM FeCl2. The reaction proceeded overnight at room temperature under anaerobic conditions, followed by analysis via electrophoresis on a 15% denaturing gel.
molecule,measurement,setting,value
"CCOC(=O)c1ccc(NC2CCCCC2)c(N)c1 [Fer-1, Ferrostatin-1]",effect of Fer-1 on the SAS-induced elevation of Fe levels,HT1080 cells; Fer-1 added to SAS-treated cells,inhibited; also recorded: reduced
same,Fe^2+ and Fe^3+ levels in control guide RNA cells,HT1080 cells,reduced
same,Fe^2+ and Fe^3+ levels compared with nontreated controls,HT1080 cells; over time,slightly reduced
"Fe^2+ H5 Original Substrate (2′OMe) (CGGACCCGTATCAATCTCACGTATAGGATATCCA; sugars from the 5' end d24 m1 d9, backbone not given here)",cleavage by the original Fe^2+ H5 DNAzyme,[1],does not cleave
"Fe^2+ H5 Substrate A14T (CGGACCCGTATCATTCTCACGTATAGGATATCCA; DNAzyme; sugars from the 5' end d24 r1 d9, backbone not given here; FAM-labeled in assays, further chemistry not fully specified)",activity of mutated substrate strand normalized to original Fe^2+ H5 Substrate,[2],heightened activity
"Fe^2+ H5 Substrate A13C (CGGACCCGTATCCATCTCACGTATAGGATATCCA; DNAzyme; sugars from the 5' end d24 r1 d9, backbone not given here; FAM-labeled in assays, further chemistry not fully specified)",activity of mutated substrate strand normalized to original Fe^2+ H5 Substrate,[2],heightened activity
"O=C(O)c1cc(/N=N/c2ccc(S(=O)(=O)Nc3ccccn3)cc2)ccc1O [SAS, Sulfasalazine]",Fe^2+ and Fe^3+ levels in control guide RNA cells,HT1080 cells,elevated
same,Fe^2+ and Fe^3+ levels compared with nontreated controls,HT1080 cells; over time,Elevated
same,Fe^3+/Fe^2+ ratio compared with nontreated controls,HT1080 cells; over time,elevated
same,increase in Fe^2+ and Fe^3+ levels in NCOA4 downregulated cells,HT1080 cells; similar treatments as control cells,smaller increase
"Fe^2+ H5 Substrate T11C (CGGACCCGTACCAATCTCACGTATAGGATATCCA; DNAzyme; sugars from the 5' end d24 r1 d9, backbone not given here; FAM-labeled in assays, further chemistry not fully specified)",activity of mutated substrate strand normalized to original Fe^2+ H5 Substrate,[2],heightened activity
"Fe^2+ H5 Original Substrate (2′H) (CGGACCCGTATCAATCTCACGTATAGGATATCCA; DNA, backbone not given here)",cleavage by the original Fe^2+ H5 DNAzyme,[1],does not cleave
B1,activity of mutated DNAzyme strand normalized to original Fe^2+ H5 DNAzyme,[2],heightened activity
B2,activity of mutated DNAzyme strand normalized to original Fe^2+ H5 DNAzyme,[2],heightened activity
B3,activity of mutated DNAzyme strand normalized to original Fe^2+ H5 DNAzyme,[2],heightened activity
B4,activity of mutated DNAzyme strand normalized to original Fe^2+ H5 DNAzyme,[2],heightened activity
B5,relative activity of combined point mutations versus original,[1],decreased the relative activity
B6,relative activity of combined point mutations versus original,[1],increased the relative activity
B7,activity of mutated DNAzyme strand normalized to original Fe^2+ H5 DNAzyme,[2],heightened activity
B8,relative activity of combined point mutations versus original,[1],increased the relative activity
B9,activity of mutated DNAzyme strand normalized to original Fe^2+ H5 DNAzyme,[2],heightened activity
B10,relative activity of combined point mutations versus original,[1],increased the relative activity
